By Ki is commonly meant the dissociation constant of the complex between target and ligand, obtained from inhibition or displacement. For orientation: pEC50 means the EC50 on a negative log10 scale, so that one unit is a factor of ten. Read a high pEC50 as a small EC50.

pEC50: −log10 of the molar value. Where a name gives a salt, the structure may show the parent alone. Read-outs that look alike come from different tables or passages of the source.

The source of these data is US8815919B2, “Oxadiazole derivatives” (Merck Serono SA, priority 2009, dated 2014).

One test concerns the target S1P3 (Homo sapiens, UniProt Q99500). The test is described as follows: Receptor binding assay, [33P]sphingosine 1-phosphate competition, S1P3 membranes, WGA SPA beads. The method, then:
(§1) Membranes were prepared from CHO cells expressing S1P1 or S1P3 for use in ligand and […] binding studies. Cells were suspended in 50 mM TRIS, pH 7.4, 2 mM EDTA, 250 mM Sucrose (buffer A) and 1× Complete protease inhibitor cocktail (Roche), and disrupted at 4° C. by N2 decompression using a cell disruption bomb (Parr Instrument). Following centrifugation at 1000 RPM for 10 min at 4° C., the supernatant was diluted (2×) in buffer A and centrifuged again at 19000 RPM for 75 min at 4° C. The pellet was then suspended in 10 mM HEPES, pH 7.4, 1 mM EDTA, 250 mM Sucrose (Buffer B), and 1× Complete EDTA-free protease inhibitor cocktail and homogenized using a potter. Membranes were flash frozen in liquid N2 and stored at −80° C.
(§2) Receptor binding assay: [33P]sphingosine 1-phosphate (3000 Ci/mmol; American Radiolabeled Chemicals, Inc.) was added to test compounds in 20% DMSO by competition. Membranes and WGA SPA beads (GE Healthcare) were added to give a final volume of 100 μl in 96-well plates or 50 μl in 384-well plates with assay concentrations of […] [33P]sphingosine 1-phosphate (respectively for S1P1 or S1P3), 50 mM HEPES, pH 7.5, 5 mM MgCl2, 100 mM NaCl, 0.4% fatty acid-free BSA, 1-5 μg/well of proteins in 96-well plates vs 0.6-1 μg/well of proteins in 384-well plates and 100 μg/well of WGA SPA beads in 96-well plates vs 75 μg/well of WGA SPA beads in 384-well plates. Binding was performed for 60 min at RT on a shaker and bound radioactivity was measured on a PerkinElmer 1450 MicroBeta counter. Triplicate samples were averaged and normalized as percentage of inhibition relative to total binding (only DMSO in well) and nonspecific binding (1000-fold excess of unlabeled S1P). Binding data were analyzed using the GraphPad Prism program or Genedata software.

Test [1] addresses T1, S1P1 (Homo sapiens, UniProt P21453). Description: S1P1 internalization assay in S1P1-U2OS cells (S1P1-EGFP), cell imaging. To be noted: 1 hour incubation. The test is classed as cell-based. Also noted: host or cells: U2OS (human bone osteosarcoma epithelial cells), CMV promoter, geneticin selection. The method, then:
Cellular functional assays: Internalization of Sphingosine-1-phosphate receptor 1 (S1P1) in a human Cell line (U2OS) in a 384-well format using a Cell Imaging analysis. • Jo, E.; Sanna, M. G.; Gonzalez-Cabrera, P. J.; Thangada, S.; Tigyi, S.; Osborne, D. A.; Hla, T.; Parrill, A. L.; Rosen, H. Chem. Biol. 2005, 12, 703
The S1P1 internalization assay was performed in 384 well plates (Corning® 384 black with clear bottom 3712) using S1P1-U2OS cells from Biolmage (C039A), a human epithelial cell line (Human Bone Osteosarcoma Epithelial Cells). These cells expressed the human S1P1 Receptor fused to the green fluorescent protein (EGFP). A standard CMV promoter (cytomegalovirus promoter) controls the expression of S1P1-EGFP and continuous expression was maintained by addition of geneticin to the culture medium.
S1P1 Receptor desensitization induced the internalization of the membrane-localized S1P1-EGFP fusion protein to endosomes, which can be monitored by cell imaging analysis. The cells are plated in low serum medium (Dulbecco's Modified Eagle Medium (DMEM) with Glutamax-1 and high glucose, 1% Penicillin/Streptomycin, 1% Fetal Calf Serum (FCS), 0.5 mg/ml Geneticin) overnight.
The next day, S1P1-U2OS cells are incubated in 20 μl serum free medium (DMEM with Glutamax-1 and high glucose, 0.1% of fatty-acid free Bovin Serum Albumin (BSA), 10 mM, N′-2-Hydroxyethylpiperazine-N′-2 ethanesulphonic acid (HEPES) 1M) for 2 hours at 37° C./5% CO2. The cells are then treated with 4 μl compounds/agonists (6×/3% DMSO) for a total volume of 24 μl, and plates are incubated for 1 hour at 37° C./5% CO2.
S1P1-U2OS cells are fixed with 25 μl Paraformaldehyde 8% and stained with Hoechst 33345 dye (1:1000) for 20 minutes.
They were then washed 3 times with Phosphate Buffered Saline (PBS) and plates are sealed. The internalization of the receptor S1P1-EGFP is measured on Cellomics by calculating the “spot count per object” (“object” corresponds to nuclear and “spot” corresponds to S1P1-EGFP receptor). Internalization data were observed thanks to vHCS View and analyzed using Genedata® software.
Target sequence in this assay (P21453 whole entry): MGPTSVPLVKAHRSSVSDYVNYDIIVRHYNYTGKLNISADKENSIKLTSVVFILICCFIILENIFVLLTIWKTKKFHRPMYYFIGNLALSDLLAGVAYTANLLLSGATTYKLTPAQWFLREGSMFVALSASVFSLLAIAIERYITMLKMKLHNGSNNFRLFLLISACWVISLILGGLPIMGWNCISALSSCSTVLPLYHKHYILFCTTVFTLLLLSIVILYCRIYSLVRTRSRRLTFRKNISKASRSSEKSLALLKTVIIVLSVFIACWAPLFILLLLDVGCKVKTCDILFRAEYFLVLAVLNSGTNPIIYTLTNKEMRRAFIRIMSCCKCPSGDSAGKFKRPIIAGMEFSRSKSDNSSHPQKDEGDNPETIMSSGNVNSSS

Test [2] deals with T1, S1P1. Description: Receptor binding assay, [33P]sphingosine 1-phosphate competition, S1P1 membranes, WGA SPA beads. The method, then: as §1, §2
Target sequence in this assay (P21453 whole entry, species assumed): as the sequence (P21453 whole entry) above
The mark [3] stands for this setting: 96 well-plate, read-out: S1P3 binding Ki (M) (96 well-plate).
The mark [4] stands for this setting: 96 well-plate, read-out: S1P1 binding Ki (M) (96 well-plate).
The mark [5] stands for this setting: 384 well-plate, read-out: S1P3 binding Ki (M) (384 well-plate).
Where [6] appears, read: 384 well-plate, read-out: S1P1 binding Ki (M) (384 well-plate).

Chain of S1P3 (Q99500 whole entry, species assumed): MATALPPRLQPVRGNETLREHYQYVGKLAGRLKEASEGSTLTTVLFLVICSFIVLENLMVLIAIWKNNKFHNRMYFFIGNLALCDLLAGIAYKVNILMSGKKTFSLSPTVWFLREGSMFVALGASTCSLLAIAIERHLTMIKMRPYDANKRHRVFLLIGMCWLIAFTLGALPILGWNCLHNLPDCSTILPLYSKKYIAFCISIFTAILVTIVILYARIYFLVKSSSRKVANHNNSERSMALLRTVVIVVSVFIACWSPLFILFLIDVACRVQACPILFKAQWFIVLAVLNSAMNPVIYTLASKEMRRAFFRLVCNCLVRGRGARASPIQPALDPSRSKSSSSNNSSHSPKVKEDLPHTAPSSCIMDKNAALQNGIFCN

Turning to `C[C@H]1CCCCN1c1ccc(-c2nc(-c3cccc(CN(C)CC(=O)O)c3)no2)cc1C(F)(F)F` [Example 46, N-methyl-N-(3-{5-[4-[(2S)-2-methylpiperidin-1-yl]-3-(trifluoromethyl)phenyl]-1,2,4-oxadiazol-3-yl}benzyl)glycine, hydrochloride salt], the Ki at S1P3 (setting [3]) was 1.31e-07 M; at S1P1 [2] (setting [4]) it was 1.07e-10 M. For the same compound, the pEC50 on S1P1 [1] was 8.28.

On to `COCc1cc(-c2nc(-c3cc(F)c(C(=O)NCCC(=O)O)cc3F)no2)ccc1-c1ccccc1C` [Example 47, N-(2,5-difluoro-4-{5-[2-(methoxymethyl)-2′-methylbiphenyl-4-yl]-1,2,4-oxadiazol-3-yl}benzoyl)-beta-alanine], for which the Ki on S1P3 (setting [3]) amounted to 4.03e-07 M; at S1P3 (setting [5]), 5.2e-07 M; on S1P1 [2] (setting [4]) it was 8.5e-10 M. On S1P1 [1], this compound showed a pEC50 of 7.69.

Turning to `Cc1ccccc1-c1ccc(-c2nc(-c3cccc(COCC(=O)O)c3)no2)cc1C(F)(F)F` [Example 48, [(3-{5-[2′-methyl-2-(trifluoromethyl)biphenyl-4-yl]-1,2,4-oxadiazol-3-yl}benzyl)oxy]acetic acid], the Ki on S1P3 (setting [3]) was found to be 6.03e-07 M; at S1P3 (setting [5]) it was 1.08e-06 M; at S1P1 [2] (setting [4]) it was 9.79e-10 M; on S1P1 [2] (setting [6]) it was 1.97e-09 M. On S1P1 [1], the pEC50 was 8.15.

With `COCc1cc(-c2nc(-c3ccc(CN(C)CC(=O)O)cc3)no2)ccc1-c1ccccc1C` [Example 51, N-(4-{5-[2-(methoxymethyl)-2′-methylbiphenyl-4-yl]-1,2,4-oxadiazol-3-yl}benzyl)-N-methylglycine, hydrochloride salt], the Ki on S1P3 (setting [3]) worked out at 7.32e-07 M; at S1P3 (setting [5]) it was 9.17e-07 M; at S1P1 [2] (setting [4]), 3.38e-10 M; on S1P1 [2] (setting [6]), 2.1e-09 M. The same compound gave a pEC50 on S1P1 [1] of 8.31.

On to `COCc1cc(-c2nc(-c3ccc(CN(C)CC(=O)O)c(F)c3)no2)ccc1-c1ccccc1C` [Example 52, N-(2-fluoro-4-{5-[2-(methoxymethyl)-2′-methylbiphenyl-4-yl]-1,2,4-oxadiazol-3-yl}benzyl)-N-methylglycine, hydrochloride salt], for which the results for the Ki on S1P3 (setting [3]) and on S1P1 [2] (setting [4]) were 1.27e-07 M and 1.96e-10 M, respectively. In addition, at S1P1 [1], the pEC50 is 8.60.

As to `COCc1cc(-c2nc(-c3ccc(CN(C)CC(=O)O)c(Br)c3)no2)ccc1-c1ccccc1C` [Example 53, N-(2-bromo-4-{5-[2-(methoxymethyl)-2′-methylbiphenyl-4-yl]-1,2,4-oxadiazol-3-yl}benzyl)-N-methylglycine, hydrochloride salt], the Ki on S1P3 (setting [3]) stood at 7e-07 M; on S1P1 [2] (setting [4]), 2.14e-10 M. The compound further gave a pEC50 at S1P1 [1] of 8.12.

On to `COCc1cc(-c2nc(-c3ccc(CN(C)CC(=O)O)cc3)no2)ccc1-c1ccccc1F` [Example 54, N-(4-{5-[2′-fluoro-2-(methoxymethyl)biphenyl-4-yl]-1,2,4-oxadiazol-3-yl}benzyl)-N-methylglycine, hydrochloride salt], for which the Ki was 3.21e-07 M at S1P3 (setting [3]), 2.59e-07 M on S1P3 (setting [5]), 3.04e-10 M at S1P1 [2] (setting [4]) and 9.76e-10 M at S1P1 [2] (setting [6]). Also, at S1P1 [1], the pEC50 is 8.20.

With `COCc1cc(-c2nc(-c3ccc(CN(C)CC(=O)O)c(F)c3)no2)ccc1-c1ccccc1F` [Example 55, N-(2-fluoro-4-{5-[2′-fluoro-2-(methoxymethyl)biphenyl-4-yl]-1,2,4-oxadiazol-3-yl}benzyl)-N-methylglycine, hydrochloride salt], the Ki on S1P3 (setting [3]) worked out at 7.12e-08 M; at S1P3 (setting [5]), 9.2e-08 M; on S1P1 [2] (setting [4]) it was 1.59e-10 M; at S1P1 [2] (setting [6]) it was 5.23e-10 M. The compound also had a pEC50 at S1P1 [1] of 8.07.

As for `CC1CCCCN1c1ccc(-c2nc(-c3cc(F)cc(CN(C)CC(=O)O)c3)no2)cc1C(F)(F)F` (centres unmarked) [Example 56, N-(3-fluoro-5-{5-[4-(2-methylpiperidin-1-yl)-3-(trifluoromethyl)phenyl]-1,2,4-oxadiazol-3-yl}benzyl)-N-methylglycine, hydrochloride salt], the Ki at S1P3 (setting [3]) was determined as 3.79e-08 M; on S1P1 [2] (setting [4]), 3.25e-10 M. For the same compound, the pEC50 at S1P1 [1] is 7.69.

Turning to `COCc1cc(-c2nc(-c3cc(F)cc(CN(C)CC(=O)O)c3)no2)ccc1-c1ccccc1F` [Example 57, N-(3-fluoro-5-{5-[2′-fluoro-2-(methoxymethyl)biphenyl-4-yl]-1,2,4-oxadiazol-3-yl}benzyl)-N-methylglycine, hydrochloride salt], the Ki on S1P3 (setting [3]) was 7.22e-09 M; on S1P1 [2] (setting [4]), 1.14e-10 M. At S1P1 [1], this compound showed a pEC50 of 8.07.

In the case of `COCc1cc(-c2nc(-c3cccc(CN(CC(=O)O)C(C)C)c3)no2)ccc1-c1ccccc1C` [Example 58, N-isopropyl-N-(3-{5-[2-(methoxymethyl)-2′-methylbiphenyl-4-yl]-1,2,4-oxadiazol-3-yl}benzyl)glycine, hydrochloride salt], the Ki at S1P3 (setting [3]) came out at 2.02e-07 M; at S1P1 [2] (setting [4]), 3.91e-10 M. In addition, the pEC50 on S1P1 [1] was 8.10.

`COCc1cc(-c2nc(-c3cccc(CN(CC(=O)O)CC(C)C)c3)no2)ccc1-c1ccccc1C` [Example 59, N-isobutyl-N-(3-{5-[2-(methoxymethyl)-2′-methylbiphenyl-4-yl]-1,2,4-oxadiazol-3-yl}benzyl)glycine, hydrochloride salt]: the Ki is 8.49e-07 M on S1P3 (setting [5]), 1.1e-09 M at S1P1 [2] (setting [4]) and 7.94e-09 M on S1P1 [2] (setting [6]). On S1P1 [1], the pEC50 was 7.13.

As to `COCc1cc(-c2nc(-c3ccc(CNCC(=O)O)cc3)no2)ccc1-c1ccccc1C` [Example 60, N-(4-{5-[2-(methoxymethyl)-2′-methylbiphenyl-4-yl]-1,2,4-oxadiazol-3-yl}benzyl)glycine, hydrochloride salt], the Ki at S1P3 (setting [3]) came to 1.93e-07 M; on S1P1 [2] (setting [4]), 3.09e-10 M. Further, the pEC50 on S1P1 [1] is 8.75.

Turning to `COCc1cc(-c2nc(-c3ccc(CNCC(=O)O)cc3)no2)ccc1-c1ccccc1F` [Example 61, N-(4-{5-[2′-fluoro-2-(methoxymethyl)biphenyl-4-yl]-1,2,4-oxadiazol-3-yl}benzyl)glycine, hydrochloride salt], the Ki on S1P3 (setting [3]) came to 1.91e-07 M; on S1P1 [2] (setting [4]), 2.26e-10 M. For the same compound, the pEC50 on S1P1 [1] was 8.47.

Take `CCN(CCC(=O)O)Cc1cccc(-c2noc(-c3ccc(-c4ccccc4F)c(COC)c3)n2)c1` [Example 62, N-ethyl-N-(3-{5-[2′-fluoro-2-(methoxymethyl)biphenyl-4-yl]-1,2,4-oxadiazol-3-yl}benzyl)-beta-alanine, hydrochloride salt]: the Ki on S1P3 (setting [3]) is 1.72e-08 M; at S1P1 [2] (setting [4]), 1.68e-10 M. This compound also had a pEC50 on S1P1 [1] of 8.54.

In the case of `CCN(CCC(=O)O)Cc1cccc(-c2noc(-c3ccc(-c4ccccc4C)c(COC)c3)n2)c1` [Example 63, N-ethyl-N-(3-{5-[2-(methoxymethyl)-2′-methylbiphenyl-4-yl]-1,2,4-oxadiazol-3-yl}benzyl)-beta-alanine, hydrochloride salt], the Ki amounted to 3.98e-08 M on S1P3 (setting [3]), 1.25e-07 M on S1P3 (setting [5]) and 1.61e-10 M at S1P1 [2] (setting [4]). The same compound gave a pEC50 at S1P1 [1] of 8.47.
